According to US11572362B2, “Pyrrolo[1,2-b]pyridazine derivatives” (Gilead Sciences, Inc., priority 2018, dated 2023):

What was measured:
[1] = test system: TNFα; experiment: IRAK4 Monocyte TNFα Cell Based Assay; conditions: Monocyte; cryopreserved human monocytes, 50 pg/ml LPS, compound 1 hour pre-treatment, 4 hours stimulation, TNFα by TR-FRET
Summary of the method: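 Monocytes at 5,000 cells/well were pre-treated with compound for 1 h at 37 °C (0.1% DMSO final), then stimulated with 50 pg/ml LPS for 4 h. Secreted TNFα in supernatant was measured by TR-FRET (665/615 ratio), expressed as % control relative to unstimulated and stimulated cells.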

[2] = biological target: IRAK4 (Homo sapiens (Human), UniProt Q9NWZ3); experiment: IRAK4 Biochemical Assay (TR-FRET/HTRF); conditions: IRAK4 enzyme 0.75 nM, 500 μM ATP, 2 μM STK1 peptide, 120 min
Summary of the method: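 Recombinant IRAK4 (0.75 nM) with 2 µM STK1 peptide and 500 µM ATP in pH 7.0 HEPES/Mg buffer; compound preincubated 15 min with enzyme and peptide, then 120 min reaction at room temperature. HTRF readout: cryptate anti-phospho-peptide antibody, 665/615 nm ratio; % inhibition against no-inhibitor and saturating-staurosporine controls.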

Chain of IRAK4 (Q9NWZ3 whole entry): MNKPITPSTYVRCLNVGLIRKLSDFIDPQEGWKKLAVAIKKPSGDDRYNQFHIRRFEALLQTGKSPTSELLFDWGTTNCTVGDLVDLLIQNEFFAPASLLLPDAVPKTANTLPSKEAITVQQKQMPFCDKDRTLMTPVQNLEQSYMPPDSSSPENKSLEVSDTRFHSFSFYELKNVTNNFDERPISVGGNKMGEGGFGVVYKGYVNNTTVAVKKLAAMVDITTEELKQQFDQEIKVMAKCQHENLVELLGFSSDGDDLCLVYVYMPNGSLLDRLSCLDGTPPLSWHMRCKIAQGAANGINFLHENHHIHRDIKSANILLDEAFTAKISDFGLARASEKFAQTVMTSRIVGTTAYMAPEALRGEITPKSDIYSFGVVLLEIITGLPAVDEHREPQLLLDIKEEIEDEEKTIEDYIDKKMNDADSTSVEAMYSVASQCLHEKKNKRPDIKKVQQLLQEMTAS

SMILES	EC50 [1]	IC50 [2]
Cc1ncc([C@H]2CC[C@H](Nc3cc(-c4ccc5cc(C#N)cnn45)ncc3C(=O)NC[C@@H](F)C(C)(C)O)CC2)s1 [Compound 50, 6-(3-cyanopyrrolo[1,2-b]pyridazin-7-yl)-N-((R)-2-fluoro-3-hydroxy-3-methylbutyl)-4-(((1r,4R)-4-(2-methylthiazol-5-yl)cyclohexyl)amino)nicotinamide]	52 nM	1 nM
CC(C)(O)[C@H](F)CNC(=O)c1cnc(-c2ccc3cc(C#N)cnn23)cc1NC1CCC(c2cnc(C(F)F)s2)CC1 (stereo partly drawn) [Compound 51, (R)-6-(3-cyanopyrrolo[1,2-b]pyridazin-7-yl)-4-((4-(2-(difluoromethyl)thiazol-5-yl)cyclohexyl)amino)-N-(2-fluoro-3-hydroxy-3-methylbutyl)nicotinamide]	76 nM	3 nM
Cc1nnc([C@H]2CC[C@H](Nc3cc(-c4ccc5cc(C#N)cnn45)ncc3C(=O)NC[C@@H](F)C(C)(C)O)CC2)s1 [Compound 52, 6-(3-cyanopyrrolo[1,2-b]pyridazin-7-yl)-N-((R)-2-fluoro-3-hydroxy-3-methylbutyl)-4-(((1r,4R)-4-(5-methyl-1,3,4-thiadiazol-2-yl)cyclohexyl)amino)nicotinamide]	50 nM	1 nM
CC(C)(O)[C@H](F)CNC(=O)c1cnc(-c2ccc3cc(C#N)cnn23)cc1N[C@H]1CC[C@H](c2nnc(C(F)F)s2)CC1 [Compound 53, 6-(3-cyanopyrrolo[1,2-b]pyridazin-7-yl)-4-(((1r,4R)-4-(5-(difluoromethyl)-1,3,4-thiadiazol-2-yl)cyclohexyl)amino)-N-((R)-2-fluoro-3-hydroxy-3-methylbutyl)nicotinamide]	27 nM	< 1 nM
CC(C)(O)[C@H](F)CNC(=O)c1cnc(-c2ccc3cc(C#N)cnn23)cc1N[C@H]1CC[C@H](c2ccccn2)CC1 [Compound 54, 6-(3-cyanopyrrolo[1,2-b]pyridazin-7-yl)-N-((R)-2-fluoro-3-hydroxy-3-methylbutyl)-4-(((1r,4R)-4-(pyridin-2-yl)cyclohexyl)amino)nicotinamide]	18 nM	< 1 nM
CC(C)(O)[C@H](F)CNC(=O)c1cnc(-c2ccc3cc(C#N)cnn23)cc1N[C@H]1CC[C@H](c2cccnc2)CC1 [Compound 55, 6-(3-cyanopyrrolo[1,2-b]pyridazin-7-yl)-N-((R)-2-fluoro-3-hydroxy-3-methylbutyl)-4-(((1r,4R)-4-(pyridin-3-yl)cyclohexyl)amino)nicotinamide]	25 nM	< 1 nM
Cc1ncc(C2CCC(Nc3cc(-c4ccc5cc(C#N)cnn45)ncc3C(=O)NC[C@@H](F)C(C)(C)O)CC2)cn1 (stereo partly drawn) [Compound 58, (R)-6-(3-cyanopyrrolo[1,2-b]pyridazin-7-yl)-N-(2-fluoro-3-hydroxy-3-methylbutyl)-4-((4-(2-methylpyrimidin-5-yl)cyclohexyl)amino)nicotinamide]	112 nM	4 nM
CC(C)(O)[C@H](F)CNC(=O)c1cnc(-c2ccc3cc(C#N)cnn23)cc1NC1CCC(c2cnc(C(F)F)nc2)CC1 (stereo partly drawn) [Compound 59, (R)-6-(3-cyanopyrrolo[1,2-b]pyridazin-7-yl)-4-((4-(2-(difluoromethyl)pyrimidin-5-yl)cyclohexyl)amino)-N-(2-fluoro-3-hydroxy-3-methylbutyl)nicotinamide]	21 nM	1 nM
CC(C)(O)[C@H](F)CNC(=O)c1cnc(-c2ccc3cc(C#N)cnn23)cc1NC12CCC(c3nnc(C(F)F)o3)(CC1)CC2 [Compound 62, (R)-6-(3-cyanopyrrolo[1,2-b]pyridazin-7-yl)-4-((4-(5-(difluoromethyl)-1,3,4-oxadiazol-2-yl)bicyclo[2.2.2]octan-1-yl)amino)-N-(2-fluoro-3-hydroxy-3-methylbutyl)nicotinamide]	19 nM	< 1 nM
CC(C)(O)[C@H](F)CNC(=O)c1cnc(-c2ccc3cc(C#N)cnn23)cc1N[C@@H]1CC[C@@H](c2nnc(C(F)F)o2)OC1 [Compound 63, 6-(3-cyanopyrrolo[1,2-b]pyridazin-7-yl)-4-(((3R,6S)-6-(5-(difluoromethyl)-1,3,4-oxadiazol-2-yl)tetrahydro-2H-pyran-3-yl)amino)-N-((R)-2-fluoro-3-hydroxy-3-methylbutyl)nicotinamide]	39 nM	< 1 nM
Cc1nnc(C23CCC(Nc4cc(-c5ccc6cc(C#N)cnn56)ncc4C(=O)NC[C@@H](F)C(C)(C)O)(CC2)CO3)o1 [Compound 64, (R)-6-(3-cyanopyrrolo[1,2-b]pyridazin-7-yl)-N-(2-fluoro-3-hydroxy-3-methylbutyl)-4-((1-(5-methyl-1,3,4-oxadiazol-2-yl)-2-oxabicyclo[2.2.2]octan-4-yl)amino)nicotinamide]	19 nM	< 1 nM
CC(C)(O)[C@H](F)CNC(=O)c1cnc(-c2ccc3cc(C#N)cnn23)cc1NC12CCC(c3nnc(C(F)F)o3)(CC1)OC2 [Compound 65, (R)-6-(3-cyanopyrrolo[1,2-b]pyridazin-7-yl)-4-((1-(5-(difluoromethyl)-1,3,4-oxadiazol-2-yl)-2-oxabicyclo[2.2.2]octan-4-yl)amino)-N-(2-fluoro-3-hydroxy-3-methylbutyl)nicotinamide]	23 nM	1 nM

Compounds with a lower EC50 [1], results first:

EC50 [1]	IC50 [2]	SMILES
13 nM	< 1 nM	CC(C)(O)[C@H](F)CNC(=O)c1cnc(-c2ccc3cc(C#N)cnn23)cc1N[C@H]1CC[C@H](c2cncs2)CC1 [Compound 49, 6-(3-cyanopyrrolo[1,2-b]pyridazin-7-yl)-N-((R)-2-fluoro-3-hydroxy-3-methylbutyl)-4-(((1r,4R)-4-(thiazol-5-yl)cyclohexyl)amino)nicotinamide]
11 nM	2 nM	CC(C)(O)[C@H](F)CNC(=O)c1cnc(-c2ccc3cc(C#N)cnn23)cc1N[C@H]1CC[C@H](c2cncnc2)CC1 [Compound 57, 6-(3-cyanopyrrolo[1,2-b]pyridazin-7-yl)-N-((R)-2-fluoro-3-hydroxy-3-methylbutyl)-4-(((1r,4R)-4-(pyrimidin-5-yl)cyclohexyl)amino)nicotinamide]
15 nM	< 1 nM	Cc1nnc(C23CCC(Nc4cc(-c5ccc6cc(C#N)cnn56)ncc4C(=O)NC[C@@H](F)C(C)(C)O)(CC2)CC3)o1 [Compound 60, (R)-6-(3-cyanopyrrolo[1,2-b]pyridazin-7-yl)-N-(2-fluoro-3-hydroxy-3-methylbutyl)-4-((4-(5-methyl-1,3,4-oxadiazol-2-yl)bicyclo[2.2.2]octan-1-yl)amino)nicotinamide]
4 nM	< 1 nM	CC(C)(O)[C@H](F)CNC(=O)c1cnc(-c2ccc3cc(C#N)cnn23)cc1NC12CCC(c3nncs3)(CC1)CC2 [Compound 61, (R)-4-((4-(1,3,4-thiadiazol-2-yl)bicyclo[2.2.2]octan-1-yl)amino)-6-(3-cyanopyrrolo[1,2-b]pyridazin-7-yl)-N-(2-fluoro-3-hydroxy-3-methylbutyl)nicotinamide]
8 nM	< 1 nM	CC(C)(O)[C@H](F)CNC(=O)c1cnc(-c2ccc3cc(C#N)cnn23)cc1NC12CCC(c3cnco3)(CC1)CC2 [Compound 66, (R)-6-(3-cyanopyrrolo[1,2-b]pyridazin-7-yl)-N-(2-fluoro-3-hydroxy-3-methylbutyl)-4-((4-(oxazol-5-yl)bicyclo[2.2.2]octan-1-yl)amino)nicotinamide]
